The values below come from ChEMBL document CHEMBL1146505, “Flavonoid glycosides from Adina racemosa and their inhibitory activities on eukaryotic protein synthesis” (2004).

Common to all, as to format: functional
Assay [1] is described as follows: (§1) Inhibition of protein synthesis in mouse Krebs cells overexpressing (CAG)33/FF/HCV/Ren mRNA reporter transcript assessed as renilla luciferase production at 100 uM relative to control.
A short description of assay [2]: (§2) Inhibition of protein synthesis in mouse Krebs cells overexpressing (CAG)33/FF/HCV/Ren mRNA reporter transcript assessed as firefly luciferase production at 100 uM relative to control.
Assay [3] is described as follows: Inhibition of translation in mouse Krebs cells overexpressing (CAG)33/FF/HCV/Ren mRNA reporter transcript assessed as luciferase production at 100 uM relative to control.
The test system of assay [4] is Krebs. The description is as §1.
In a further assay the test system is Escherichia coli. In words: Inhibition of bacterial protein synthesis in Escherichia coli S30 overexpressing pBEST/luc and [35S]met assessed as [35S]met incorporation.
The species named for another assay is Oryctolagus cuniculus. The assay can be described thus: Inhibition of translation initiation in rabbit reticulocyte lysates with [32P]CAT mRNA assessed as 80S initiation complex formation at 50 uM by ribosome binding assay in presence of cycloheximide.
In assay [5] the test system is Krebs. The assay is described as §2.

Activity calls are given as the source filed them. No cut-off for these calls is given here.

In the case of `C[C@@H]1O[C@@H](OC[C@H]2O[C@@H](Oc3c(-c4ccc(O)c(O)c4)oc4cc(O)cc(O)c4c3=O)[C@H](O)[C@@H](O)[C@H]2OC(=O)/C=C/c2ccc(O)cc2)[C@H](O)[C@H](O)[C@H]1O`, the “fold change (FC)” value in assay [1] and in assay [2] was 2 throughout.
As for `C[C@@H]1O[C@@H](OC[C@H]2O[C@@H](Oc3c(-c4ccc(O)c(O)c4)oc4cc(O)cc(O)c4c3=O)[C@H](O[C@@H]3O[C@@H](C)[C@H](OC(=O)/C=C/c4ccc(O)c(O)c4)[C@@H](O)[C@H]3O)[C@@H](OC(=O)/C=C/c3ccc(O)cc3)[C@H]2O)[C@H](O)[C@H](O)[C@H]1O`, the “fold change (FC)” value in assay [3] is on record as 10. Also, the outcome with Krebs [4] and with Krebs [5] was Active. Moreover, the outcome with Escherichia coli and in the assay filed under Oryctolagus cuniculus was inactive.
As for `C[C@@H]1O[C@@H](OC[C@H]2O[C@@H](Oc3c(-c4ccc(O)c(O)c4)oc4cc(O)cc(O)c4c3=O)[C@H](O[C@@H]3O[C@@H](C)[C@H](OC(=O)/C=C/c4ccc(O)cc4)[C@@H](O)[C@H]3O)[C@@H](O)[C@H]2OC(=O)/C=C/c2ccc(O)cc2)[C@H](O)[C@H](O)[C@H]1O`, in assay [3], the “fold change (FC)” value is listed as 5. Further, the result in the assay with Krebs [4] and in the assay with Krebs [5] was Active.
In the case of `C[C@@H]1O[C@@H](OC[C@H]2O[C@@H](Oc3c(-c4ccc(O)c(O)c4)oc4cc(O)cc(O)c4c3=O)[C@H](O)[C@@H](OC(=O)/C=C/c3ccc(O)cc3)[C@H]2O)[C@H](O)[C@H](O)[C@H]1O`, the “fold change (FC)” value in assay [1] and in assay [2] was 2 throughout.
Regarding `C[C@@H]1O[C@@H](OC[C@H]2O[C@@H](Oc3c(-c4ccc(O)c(O)c4)oc4cc(O)cc(O)c4c3=O)[C@H](O[C@@H]3O[C@@H](C)[C@H](OC(=O)/C=C/c4ccc(O)cc4)[C@@H](O)[C@H]3O)[C@@H](OC(=O)/C=C/c3ccc(O)cc3)[C@H]2O)[C@H](O)[C@H](O)[C@H]1O`, the “fold change (FC)” value in assay [3] was 10. In addition, the outcome with Krebs [4] and in the assay with Krebs [5] was Active.
Turning to `C[C@@H]1O[C@@H](OC[C@H]2O[C@@H](Oc3c(-c4ccc(O)cc4)oc4cc(O)cc(O)c4c3=O)[C@H](O)[C@@H](O)[C@H]2OC(=O)/C=C/c2ccccc2)[C@H](O)[C@H](O)[C@H]1O`, the “fold change (FC)” value in assay [1] and in assay [2] was 2 throughout.
With `C[C@@H]1O[C@@H](OC[C@H]2O[C@@H](Oc3c(-c4ccc(O)cc4)oc4cc(O)cc(O)c4c3=O)[C@H](O[C@@H]3O[C@@H](C)[C@H](OC(=O)/C=C/c4ccc(O)cc4)[C@@H](O)[C@H]3O)[C@@H](O)[C@H]2OC(=O)/C=C/c2ccc(O)cc2)[C@H](O)[C@H](O)[C@H]1O`, in assay [3], the “fold change (FC)” value is reported as 5. The result with Krebs [4] and in the assay on Krebs [5] was Active.
